# Source: US11203574B2 (BioCryst Pharmaceuticals, Inc., priority 2014, dated 2021)
# Molecular target: human plasma kallikrein (Homo sapiens (Human), UniProt P03952)
# Test: Plasma kallikrein activity assay (chromogenic substrate S2302)
# Format: biochemical
# Conditions: 2 nM kallikrein, 80 μM S2302, 30° C., pH 7.8; Ki by Cheng-Prusoff equation; values given as ranges; read-out: Ki
# human plasma kallikrein, sequence (P03952 whole entry, looked up): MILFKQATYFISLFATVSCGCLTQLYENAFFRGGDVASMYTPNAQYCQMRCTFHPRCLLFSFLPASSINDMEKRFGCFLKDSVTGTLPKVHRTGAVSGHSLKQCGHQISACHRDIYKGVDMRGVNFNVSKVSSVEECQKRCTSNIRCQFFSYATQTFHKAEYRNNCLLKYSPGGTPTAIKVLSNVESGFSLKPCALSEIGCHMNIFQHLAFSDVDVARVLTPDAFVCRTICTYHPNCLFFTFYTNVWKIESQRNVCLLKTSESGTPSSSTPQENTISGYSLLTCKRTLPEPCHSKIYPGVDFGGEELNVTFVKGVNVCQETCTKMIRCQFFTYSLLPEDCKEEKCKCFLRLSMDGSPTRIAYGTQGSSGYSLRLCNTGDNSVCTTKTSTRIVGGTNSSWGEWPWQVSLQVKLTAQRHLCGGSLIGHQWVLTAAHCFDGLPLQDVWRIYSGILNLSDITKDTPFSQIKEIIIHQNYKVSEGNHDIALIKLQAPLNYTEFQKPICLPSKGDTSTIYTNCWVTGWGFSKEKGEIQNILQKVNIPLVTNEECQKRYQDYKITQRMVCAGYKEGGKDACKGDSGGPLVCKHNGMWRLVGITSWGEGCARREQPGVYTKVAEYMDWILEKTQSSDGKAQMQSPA
# human plasma kallikrein, sequence (P03952 whole entry partner, looked up): as the sequence (P03952 whole entry, looked up) above
row,Structure (SMILES),Ki [nM]
1,"NCc1cccc(-n2nc(C(F)(F)F)cc2C(=O)Nc2cccc(C(OCC3CC3)c3ccc(O)cc3)c2)c1 (stereo not shown) [149b, 1-(3-(aminomethyl)phenyl)-N-(3-((cyclopropylmethoxy)(4-hydroxyphenyl)methyl)phenyl)-3-(trifluoromethyl)-1H-pyrazole-5-carboxamide]",0.1 to 50
2,"NCc1cccc(-n2nc(C(F)(F)F)cc2C(=O)Nc2cccc(C(O)(CCC3CC3)c3cccnc3)c2)c1 (racemic) [47f, 1-(3-(aminomethyl)phenyl)-N-(3-(3-cyclopropyl-1-hydroxy-1-(pyridin-3-yl)propyl)phenyl)-3-(trifluoromethyl)-1H-pyrazole-5-carboxamide]",0.1 to 50
3,"Nc1nccc2ccc(-n3nc(C(F)(F)F)cc3C(=O)Nc3cc(C(CCC4CC4)n4ccc(=O)[nH]c4=O)ccc3F)cc12 (stereo not shown) [269b, 1-(1-aminoisoquinolin-7-yl)-N-(5-(3-cyclopropyl-1-(2,4-dioxo-3,4-dihydropyrimidin-1(2H)-yl)propyl)-2-fluorophenyl)-3-(trifluoromethyl)-1H-pyrazole-5-carboxamide]",0.1 to 50
4,"NCc1cccc(-n2nc(C(F)(F)F)cc2C(=O)Nc2cccc(C(NCC3CC3)c3cccc(O)c3)c2)c1 (stereo not shown) [137a, 1-(3-(Aminomethyl)phenyl)-N-(3-((cyclopropylmethylamino)(3-hydroxyphenyl)methyl)phenyl)-3-(trifluoromethyl)-1H-pyrazole-5-carboxamide]",0.1 to 50
5,"NCc1cccc(-n2nc(C(F)(F)F)cc2C(=O)Nc2cccc(C(OCC3CC3)c3ccccn3)c2)c1 (single isomer, unassigned; (-)) [43g, (−)-1-(3-(aminomethyl)phenyl)-N-(3-((cyclopropylmethoxy)(pyridin-2-yl)methyl)-phenyl)-3-(trifluoromethyl)-1H-pyrazole-5-carboxamide]",0.1 to 50
6,"CCCCC(c1ccccc1)c1cccc(NC(=O)c2cc(C(F)(F)F)nn2-c2cccc(CN)c2)c1 (stereo not shown) [32f, 1-(3-(aminomethyl)phenyl)-N-(3-(1-phenylpentyl)phenyl)-3-(trifluoromethyl)-1H-pyrazole-5-carboxamide]",50 to 100
7,"CS(=O)(=O)NC(CCC1CC1)(c1ccncc1)c1ccc(F)c(NC(=O)c2cc(C(F)(F)F)nn2-c2cccc(CN)c2)c1 (single isomer, unassigned; (-)) [245c, (−)-1-(3-(aminomethyl)phenyl)-N-(5-(3-cyclopropyl-1-(methylsulfonamido)-1-(pyridin-4-yl)propyl)-2-fluorophenyl)-3-(trifluoromethyl)-1H-pyrazole-5-carboxamide]",0.1 to 50
8,"NCc1cccc(-n2nc(C(F)(F)F)cc2C(=O)Nc2cccc(C(NCC3CC3)c3cc(F)ccc3F)c2)c1 (stereo not shown) [197f, 1-(3-(aminomethyl)phenyl)-N-(3-(((cyclopropylmethyl)amino)(2,5-difluorophenyl)methyl)phenyl)-3-(trifluoromethyl)-1H-pyrazole-5-carboxamide]",0.1 to 50
9,"NCc1cccc(-n2nc(C(F)(F)F)cc2C(=O)Nc2cc(C(NCC3CC3)c3cccnc3)ccc2F)c1 (stereo not shown) [94b, 1-(3-(aminomethyl)phenyl)-N-(5-((cyclopropylmethylamino)(pyridin-3-yl)methyl)-2-fluorophenyl)-3-(trifluoromethyl)-1H-pyrazole-5-carboxamide]",0.1 to 50
10,"Cc1cccc(C(NCC2CC2)c2ccc(F)c(NC(=O)c3cc(C(F)(F)F)nn3-c3cccc(CN)c3)c2)c1 (stereo not shown) [140e, 1-(3-(aminomethyl)phenyl)-N-(5-(((cyclopropylmethyl)amino)(m-tolyl)methyl)-2-fluorophenyl)-3-(trifluoromethyl)-1H-pyrazole-5-carboxamide]",0.1 to 50
11,"NCc1cccc(-n2nc(C(F)(F)F)cc2C(=O)Nc2cc(C(NCC3CC3)c3cccc(N)c3)ccc2F)c1 (stereo not shown) [131b, 1-(3-(aminomethyl)phenyl)-N-(5-((3-aminophenyl)(cyclopropylmethylamino)methyl)-2-fluorophenyl)-3-(trifluoromethyl)-1H-pyrazole-5-carboxamide]",0.1 to 50
12,"CCCN(c1ccccc1)c1ccc(F)c(NC(=O)c2cc(C(F)(F)F)nn2-c2cccc(CN)c2)c1 [77e, 1-(3-(aminomethyl)phenyl)-N-(2-fluoro-5-(phenyl(propyl)amino)phenyl)-3-(trifluoromethyl)-1H-pyrazole-5-carboxamide]",0.1 to 50
13,"NCc1cccc(-n2nc(C(F)(F)F)cc2C(=O)Nc2cccc(C(OCC3CC3)c3ccccc3)c2F)c1 (stereo not shown) [36d, 1-(3-(aminomethyl)phenyl)-N-(3-((cyclopropylmethoxy)(phenyl)methyl)-2-fluorophenyl)-3-(trifluoromethyl)-1H-pyrazole-5-carboxamide]",0.1 to 50
14,"NCc1cccc(-n2nc(C(F)(F)F)cc2C(=O)Nc2cccc(C(NCC3CC3)c3c4ccccc4c(Cl)c4ccccc34)c2)c1 (stereo not shown) [118f, 1-(3-(aminomethyl)phenyl)-N-(3-((10-chloroanthracen-9-yl)(cyclopropylmethylamino)methyl)phenyl)-3-(trifluoromethyl)-1H-pyrazole-5-carboxamide]",0.1 to 50
15,"Cc1ccc(C(NCC2CC2)c2cccc(NC(=O)c3cc(C(F)(F)F)nn3-c3cccc(CN)c3)c2)c(C)c1 (stereo not shown) [201f, 1-(3-(aminomethyl)phenyl)-N-(3-(((cyclopropylmethyl)amino)(2,4-dimethylphenyl)methyl)phenyl)-3-(trifluoromethyl)-1H-pyrazole-5-carboxamide]",0.1 to 50
16,"N#Cc1ccc(C(N)(CCC2CC2)c2cccc(NC(=O)c3cc(C(F)(F)F)nn3-c3cccc(CN)c3)c2)cc1 (single isomer, unassigned; (+)) [218c, (+)-N-(3-(1-amino-1-(4-cyanophenyl)-3-cyclopropylpropyl)phenyl)-1-(3-(aminomethyl)phenyl)-3-(trifluoromethyl)-1H-pyrazole-5-carboxamide]",0.1 to 50
17,"NCc1cccc(-n2nc(C(F)(F)F)cc2C(=O)Nc2cccc(C(CCC3CC3)n3ccccc3=O)c2)c1 (stereo not shown) [247c, 1-(3-(aminomethyl)phenyl)-N-(3-(3-cyclopropyl-1-(2-oxopyridin-1(2H)-yl)propyl)phenyl)-3-(trifluoromethyl)-1H-pyrazole-5-carboxamide]",0.1 to 50
18,"NCc1cccc(-n2nc(C(F)(F)F)cc2C(=O)Nc2cccc(C(NCC3CC3)c3ccc(Cl)cc3Cl)c2)c1 (stereo not shown) [200f, 1-(3-(aminomethyl)phenyl)-N-(3-((2,4-dichlorophenyl)((cyclopropylmethyl)amino)methyl)phenyl)-3-(trifluoromethyl)-1H-pyrazole-5-carboxamide]",0.1 to 50
19,"Nc1nccc2ccc(-n3nc(C(=O)Nc4cc(C(N)(CCC5CC5)c5ccncc5)ccc4F)cc3C(F)(F)F)cc12 (single isomer, unassigned; (+)) [268g, (+)-N-(5-(1-amino-3-cyclopropyl-1-(pyridin-4-yl)propyl)-2-fluorophenyl)-1-(1-aminoisoquinolin-7-yl)-5-(trifluoromethyl)-1H-pyrazole-3-carboxamide]",50 to 100
20,"NCc1cccc(-n2nc(C(F)(F)F)cc2C(=O)Nc2cccc(C(OCC3CC3)c3cccc(N)c3)c2)c1 (stereo not shown) [53f, 1-(3-(aminomethyl)phenyl)-N-(3-((3-aminophenyl)(cyclopropyl-methoxy)methyl)phenyl)-3-(trifluoromethyl)-1H-pyrazole-5-carboxamide]",0.1 to 50
21,"NCc1cccc(-n2nc(C(F)(F)F)cc2C(=O)Nc2cccc(C(NCC3CC3)c3cccc(N)c3)c2)c1 (stereo not shown) [102b, 1-(3-(aminomethyl)phenyl)-N-(3-((3-aminophenyl)(cyclopropylmethylamino)methyl)phenyl)-3-(trifluoromethyl)-1H-pyrazole-5-carboxamide]",0.1 to 50
22,"NCc1cccc(-n2nc(C(F)(F)F)cc2C(=O)Nc2cc(C(CCC3CC3)n3ccc(=O)[nH]c3=O)ccc2F)c1 (stereo not shown) [263d, 1-(3-(aminomethyl)phenyl)-N-(5-(3-cyclopropyl-1-(2,4-dioxo-3,4-dihydropyrimidin-1(2H)-yl)propyl)-2-fluorophenyl)-3-(trifluoromethyl)-1H-pyrazole-5-carboxamide]",0.1 to 50
23,"NCc1cccc(-n2nc(C(F)(F)F)cc2C(=O)Nc2cccc(C(OCC3CC3)c3cccnc3)c2)c1 (single isomer, unassigned; (+)) [44d, (+)-1-(3-(aminomethyl)phenyl)-N-(3-((cyclopropylmethoxy)(pyridin-3-yl)methyl)phenyl)-3-(trifluoromethyl)-1H-pyrazole-5-carboxamide]",0.1 to 50
24,"NCc1cccc(-n2nc(C(F)(F)F)cc2C(=O)Nc2cc(C(N)(CCC3CC3)c3ccncc3)ccc2F)c1 (single isomer, unassigned; (+)) [216d, (+)-N-(5-(1-amino-3-cyclopropyl-1-(pyridin-4-yl)propyl)-2-fluorophenyl)-1-(3-(aminomethyl)phenyl)-3-(trifluoromethyl)-1H-pyrazole-5-carboxamide]",0.1 to 50
25,"NCc1cccc(-n2nc(C(F)(F)F)cc2C(=O)Nc2cccc(C(NCC3CC3)c3c(F)cccc3F)c2)c1 (stereo not shown) [198f, 1-(3-(aminomethyl)phenyl)-N-(3-(((cyclopropylmethyl)amino)(2,6-difluorophenyl)methyl)phenyl)-3-(trifluoromethyl)-1H-pyrazole-5-carboxamide]",0.1 to 50
26,"CC(C)(C)C(=O)NC(CCC1CC1)(c1cccnc1)c1ccc(F)c(NC(=O)c2cc(C(F)(F)F)nn2-c2cccc(CN)c2)c1 (single isomer, unassigned; (-)) [244g, (−)-1-(3-(aminomethyl)phenyl)-N-(5-(3-cyclopropyl-1-pivalamido-1-(pyridin-3-yl)propyl)-2-fluorophenyl)-3-(trifluoromethyl)-1H-pyrazole-5-carboxamide]",0.1 to 50
27,"NCc1cccc(-n2nc(C(F)(F)F)cc2C(=O)Nc2cccc(C(OCC3CC3)c3ccccc3)c2)c1 (single isomer, unassigned; (-)) [165e, (−)-1-(3-(aminomethyl)phenyl)-N-(3-((cyclopropylmethoxy)(phenyl)methyl)phenyl)-3-(trifluoromethyl)-1H-pyrazole-5-carboxamide]",0.1 to 50
28,"CCCOC(c1ccccc1)c1cccc(NC(=O)c2cc(C(F)(F)F)nn2-c2cccc(CN)c2)c1 (stereo not shown) [18h, 1-(3-(aminomethyl)phenyl)-N-(3-(phenyl(propoxy)methyl)phenyl)-3-(trifluoromethyl)-1H-pyrazole-5-carboxamide]",50 to 100
